Results as given in patent publication US20040096427A1, “Oral gram(+) bacteria and glutamine composition for prevention and/or treatment of gastro-intestinal dysfunctions including inflammation in the gastro-intestinal tract, neonatal necrotizing enterocolitis (nec) and bacterial sepsis” (priority 2003, published 2004).

Assays:
[1] = tested on: E. coli; experiment: E. coli adherence to gastro-intestinal mucosa; details: inventors' determination
[2] = tested on: E. coli; details: cited from earlier work; for adherence and translocation of Gram (−) organisms such as E. coli: Caco-2 cell culture model, U.S. Pat. No. 6,132,710
[3] = tested on: E. coli; details: cited from earlier work; for tissue injury and inflammatory cell infiltration: rabbit ileal loop model, U.S. Pat. No. 6,132,710
[4] = tested on: E. coli; experiment: Caco-2 cell transwell system, E. coli translocation (transcytosis); assay type: cell-based; details: inventors' determination
Experimental: Caco-2 cells derived from human adenocarcinoma cells which show all the morphological and functional characteristics of mature small intestinal epithelial cells after differentiation were employed in a number of experimental systems. Panigrahi et al., Development of an in vitro model for study of non-01 Vibrio cholerae virulence using Caco-2 cells, Infect. Immun., 58:3415-3424 (1990). Caco-2 cells were grown in DMEM supplemented with 1% nonessential amino acids, 1% sodium pyruvate, 10% fetal calf serum, 100 U penicillin and 100 μg of streptomycin/mL in a 5% CO2 atmosphere at 37° C. For transcytosis studies, 0.2×10^6 cells in 0.3 mL medium were seeded on the apical side of 0.6 cm^2 polycarbonate transwell filters/clusters (Costar, Cambridge, Mass.). […]
A Caco-2 cell transwell system was used in accordance with Panigrahi et al. (1990) and Panigrahi et al. (1994) to grow cells on a membrane allowing the measurement of bacteria that translocate. Briefly, Caco-2 cells were grown on polycarbonate filters in transwell cluster and TEER (trans-epithelial electrical resistance) was measured before and after treatment (1) with E. coli alone, (2) in a system deprived of glutamine, (3) in a system deprived of glutamine and later replenished with glutamine, and (4) in a system deprived of glutamine and treated with a Lactobacillus strain ATCC 202195 and glutamine composition. […]

Row | Molecule | effect on E. coli adherence to gastro-intestinal mucosa [1] | adherence and translocation of Gram (−) organisms such as E. coli [2] | tissue injury and inflammatory cell infiltration [3] | effect on translocation of E. coli across mucosal layers [4] | bacterial translocation ([2]; glutamine supplied from the luminal (apical) side, U.S. Pat. No. 5,981,590) | protection against Gram (−) bacteria-induced necrotizing enterocolitis ([3]; instillation of rabbit ileal loops with glutamine, U.S. Pat. No. 5,981,590)
1 | Lactobacillus | prevents initial steps | – | – | – | – | –
2 | Lactobacillus acidophilus | – | capable of blocking | reduced | – | – | –
3 | NC(=O)CC[C@H](N)C(=O)O [glutamine] | does not have an effect | – | – | prevents translocation | reduce bacterial translocation | protects
4 | Lactobacillus plantarum | – | capable of blocking | reduced | – | – | –
